Reference: patent US8299106B2, “Compositions of kinase inhibitors and their use for treatment of cancer and other diseases related to kinases” (Boston Biomedical, Inc., priority 2007, dated 2012)

Legend:
[1] = tested on: FaDu xenograft tumors; assay: Spherogenesis of cells from treated FaDu xenograft tumors; type: in vivo, mice; details: daily po for four days; carboplatin 30 mg/kg, 10-2 100 mg/kg; spheres after 10-14 days
Protocol: In addition, we also tested if compound 10-2 can target cancer stem cells in vivo. Six-week-old female athymic nu/nu mice were obtained from Charles River Labs (Wilmington, Mass.). Mice were injected subcutaneously on the flank with 6×10^6 FaDu cancer cells in 0.2 mL of serum-free DMEM. After xenografts reached ˜200 mm^3 in size, animals bearing FaDu xenograft tumors were administered daily with either vehicle, carboplatin (30 mg/kg), or compound 10-2 (100 mg/kg) via po for four days before sacrifice. Tumors were then collected for FaDu cells. Single cell suspensions were obtained following animal sacrifice, and sterile removal of tumors. Briefly, tumors were minced with sterile scalpels into 0.1 mm^3 pieces before being digested in 1 mg/mL collagenase/HBSS for 15-30 minutes with constant agitation. Following passage through a 40 μm mesh filter, RBCs, dead cells, and cell debris were removed by layering the cell suspension onto 1 mL of Histopaque and collecting interface layer after centrifugation at 1440×g for 30 minutes. Live cells were then counted and used to measure their ability to form spheres. […] Fresh media was added every three days, and sphere formation was determined after 10-14 days in culture. Spheres with >50 cells were scored. […]

[2] = tested on: Hoechst side population of SW480 cells; assay: Colony formation assay, Hoechst side population vs non-side population; type: cell-based; details: colony formation assays, FIG. 4B
Protocol: (§1) Cell Viability Determination: For colony formation assay, cells were plated in 6 well plates at 2000 cells per well. Twenty-four hours after plating, cells were treated with compound. Colonies were allowed to develop for 7-10 days, at which they were stained with modified Giemsa stain (Sigma). Stained colonies were then counted to determine IC50.
Hoechst Side Population: SW480 cells were removed from the culture dish with trypsin and ethylenediaminetetraacetic acid (“EDTA”), pelleted by centrifugation, washed with phosphate-buffered saline (PBS), and resuspended at 37° C. in Dulbecco's modified Eagle's medium (DMEM) containing 2% FBS and 1 mM 4-(2-hydroxyethyl)-1-piperazineethanesulfonic acid (HEPES). The cells were then labeled with Hoechst 33342 (Invitrogen) at a concentration of 5 μg/mL. The labeled cells were incubated for 120 minutes at 37° C., either alone or with 50 μM verapamil (Sigma-Aldrich, St. Louis). After staining, the cells were suspended in Hanks' balanced saline solution (HBSS; Invitrogen) containing 2% FBS and 1 mM HEPES, passed a through 40 μm mesh filter, and maintained at 4° C. until flow cytometry analysis. The Hoechst dye was excited at 350 nm, and its fluorescence was measured at two wavelengths using a 450 DF10 (450/20 nm band-pass filter) and a 675LP (675 nm long-pass edge filter) optical filter. […]

[3] = tested on: HT29; assay: Colony formation assay (CFA), HT29; type: cell-based; details: grown 7-10 days
Protocol: as §1
(§2) Compounds 5 [as shown in Example 1], 3 [as shown in Example 1], 7-1[as shown in Example 1], 10-2 [as shown in Example 3], 10-1 [as shown in Example 2], and 13-1 [as shown in Example 4] were tested for their ability to inhibit cell growth and promote cell death using the colony formation assay (CFA). Cells were treated for either 6 or twenty-four hours with the indicated compounds, and then allowed to grow for an additional 7-10 days. Cells were then stained, and colonies counted to determine IC-50 values.
(§3) Similarly, Compound 10-2 [as shown in Example 3] was tested against a wide range of cancer cell lines.

[4] = tested on: MDA-MB-231; assay: Colony formation assay (CFA), MDA-MB-231; type: cell-based; details: grown 7-10 days
Protocol: as §1, §2

[5] = tested on: SW480 cells; assay: Hoechst side population staining of SW480 cells; type: cell-based; details: treated before Hoechst staining (50 μM), FIG. 4A
Protocol: Hoechst Side Population: SW480 cells were removed from the culture dish with trypsin and ethylenediaminetetraacetic acid (“EDTA”), pelleted by centrifugation, washed with phosphate-buffered saline (PBS), and resuspended at 37° C. in Dulbecco's modified Eagle's medium (DMEM) containing 2% FBS and 1 mM 4-(2-hydroxyethyl)-1-piperazineethanesulfonic acid (HEPES). The cells were then labeled with Hoechst 33342 (Invitrogen) at a concentration of 5 μg/mL. The labeled cells were incubated for 120 minutes at 37° C., either alone or with 50 μM verapamil (Sigma-Aldrich, St. Louis). After staining, the cells were suspended in Hanks' balanced saline solution (HBSS; Invitrogen) containing 2% FBS and 1 mM HEPES, passed a through 40 μm mesh filter, and maintained at 4° C. until flow cytometry analysis. The Hoechst dye was excited at 350 nm, and its fluorescence was measured at two wavelengths using a 450 DF10 (450/20 nm band-pass filter) and a 675LP (675 nm long-pass edge filter) optical filter. The gating on forward and side scatter was not stringent, and only debris was excluded (Goodell et al., 1996 J Exp Med 183, 1797-806).
SW480 cells were stained with Hoechst. The side population (shown in FIG. 4A, upper left panel gated area) was sorted out to enrich the cancer stem cells. […]

[6] = tested on: FaDu; assay: Colony formation assay (CFA), FaDu; type: cell-based; details: Homo sapiens, treated 6 or 24 hours, grown 7-10 days
Protocol: as §1, §2, §3

[7] = Homo sapiens, HT-29, treated 6 or 24 hours
[8] = Homo sapiens, MDA-MB-231, treated 6 or 24 hours

Compound	IC50 [3, 7] [nM]	IC50 [4, 8] [nM]	further results
N.N.O=C([O-])C1(C(=O)[O-])CCC1.[Pt+2] [carboplatin]			spherogenesis of tumor cells after in vivo treatment [1]: unchanged spherogenesis
COc1cccc2c1C(=O)c1c(O)c3c(c(O)c1C2=O)C[C@@](O)(C(=O)CO)C[C@@H]3O[C@H]1C[C@H](N)[C@H](O)[C@H](C)O1 [Doxorubicin]			side population relative to non-side population [2]: more resistant
Cc1nc(-c2ccc3c(c2)CC(=O)N3)cs1 [Compound 3]			IC50 ([3]; treated 6 or 24 hours): 50000 to 300000 nM; IC50 ([4]; treated 6 or 24 hours): 50000 to 300000 nM
Cc1nc(-c2ccc3c(c2)/C(=C/c2[nH]c(C)c(C(=O)N4CCN(C)CC4)c2C)C(=O)N3)cs1 [Compound 7-1]	6000 to 10000	6000 to 10000	
Cc1[nH]c(/C=C2\C(=O)Nc3ccc(-c4csc(-c5ccccc5)n4)cc32)c(C)c1C(=O)N1CCN(C)CC1 [Compound 10-1]	1500 to 3000	800 to 1500	
Cc1[nH]c(/C=C2\C(=O)Nc3ccc(-c4csc(-c5cccnc5)n4)cc32)c(C)c1C(=O)N1CCN(C)CC1 [Compound 13-1]	400 to 800	100 to 250	
COc1ccc(CCN(C)CCCC(C#N)(c2ccc(OC)c(OC)c2)C(C)C)cc1OC (stereo not drawn) [Verapamil]			effect on Hoechst side population [5]: loss of the side population
CCN(CC)CCNC(C)c1c(C)[nH]c(/C=C2\C(=O)Nc3ccc(-c4csc(-c5cccnc5)n4)cc32)c1C (stereo not drawn) [Compound 13-2]			IC50 [6]: 300 to 400 nM
